Data as given in patent US6344203B1, “Mimicking peptides in cancer therapy” (The Austin Research Institute, priority 1995, dated 2002).
Like-named read-outs stand apart in the source and are kept apart here. No end group written: not given here.

Legend:
[1] = tested on: human anti-Galα(1,3)Gal IgG antibodies; assay: Elisa: inhibition of anti-Galα(1,3)Gal IgG binding to Galα(1,3)Gal-BSA; settings: for Inhibition of anti-Galα(1,3)Gal IgG binding to Galα(1,3)Gal-BSA (in words) / Inhibition of binding of anti-Galα(1,3)Gal IgG to Galα(1,3)Gal-BSA: Elisa; for Inhibition of anti-Galα(1,3)Gal IgG binding to Galα(1,3)Gal-BSA (in words): varying concentrations of inhibitor; for Inhibition of binding of anti-Galα(1,3)Gal IgG to Galα(1,3)Gal-BSA: peptides at 5 mM (FIG. 8b)
Experimental: (§1) 50 μl of either purified anti-Galα(1,3)Ga IgG or biotinylated IB4 lectin was added to the wells, incubated for 45 minutes at 22° C., washed with PBS-0.05% Tween 20, and 50 μl of the relevant IIRP conjugate added and incubated for a further 45 minutes before washing and the addition of 50 μl of substrate (2,2′ Azino-di-B-ethylbenzthiozoline (Zymed, San Francisco, Calif.)) and reading the OD405.
(§2) An Elisa was established to calculate the relative “affinity” of the Gal pep 1 (SEQ ID No. 1) for the IB4 lectin and for human anti-Galα(1,3)Gal antibodies, and to compare these with the affinities for α-galactosyl sugars.
(§3) Peptides or carbohydrates were examined cytofluorographically for their ability to inhibit antibody/lectin binding to the cell surface using a FACSCAN flow cytometer (Becton Dickinson, USA)[20]: 25 μl of inhibitor was mixed with 25 μl of antibody of lectin and incubated at 22° C. for 3 hours (peptides) or at 4° C. for 16 hours (carbohydrates)[14], prior to addition of appropriate targets. An Elisa assay was used to calculate the relative affinities of the sugars or the peptides for both IB4 lectin and antibodies, and were defined as the molar concentration of inhibitor giving 50% inhibition of the maximal binding of lectin or antibody.

IB4 lectin [2] = biological target: T1, IB4 lectin (Griffonia simplicifolia, UniProt Q8W1R6); assay: Elisa: inhibition of IB4 lectin binding to Galα(1,3)Gal-BSA; settings: for Inhibition of IB4 lectin binding to Galα(1,3)Gal-BSA (in words) / Inhibition of binding of IB4 to Galα(1,3)Gal-BSA: Elisa; for Inhibition of IB4 lectin binding to Galα(1,3)Gal-BSA (in words): varying concentrations of inhibitor; for Inhibition of binding of IB4 to Galα(1,3)Gal-BSA: peptide concentration 5 mM (FIG. 8a)
T1 sequence (Q8W1R6 1-247): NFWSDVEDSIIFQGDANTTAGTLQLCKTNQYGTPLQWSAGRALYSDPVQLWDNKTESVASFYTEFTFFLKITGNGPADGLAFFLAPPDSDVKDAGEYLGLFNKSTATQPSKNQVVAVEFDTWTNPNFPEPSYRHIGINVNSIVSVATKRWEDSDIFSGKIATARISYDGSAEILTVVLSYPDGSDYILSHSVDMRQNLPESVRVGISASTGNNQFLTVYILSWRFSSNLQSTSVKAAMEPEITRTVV
Experimental: as §1, §2, §3

IB4 lectin [3] = biological target: T1, IB4 lectin; assay: Cytofluorographic inhibition of IB4 lectin binding to PIEC cells; assay type: cell-based
Experimental: FIGS. 3(A-C). […] (A); Staining of PIEC cells with IB4 lectin (1 μg/ml). (B) Staining of PIEC cells with NHS (final dilution of 1/50) and anti-human Ig. (C) Staining of PBL with IB4 lectin (μg/ml). Peptides were used at 5 mM (A and C) or at 20 mM (B). In each panel profile “a” represents binding in the presence of Gal pep 1 (SEQ ID No. 1), and profile “b” the binding in the presence of CD48 pep 1 (SEQ ID No. 11).
FIGS. 6(A-B). […] Varying concentrations of peptides (shown in mM on horizontal axis) were explained for ability to inhibit the binding of IB4 lectin (1 μg/ml) to tie PIEC cells using cytofluorographic analysis. (a) Gal pep 1 (SEQ ID No. 1) (□), Muc pep 1 (SEQ ID No. 15) (∘).
FIG. 7. […] All peptides used at 5 mM, using cytofluorograhic analysis. Inhibition calculated relative to no peptide control.
(§4) The binding of lectin or antibody to the surface of pig cells was detected by hemagglutination, cytotoxicity or flow cytometry using the FACSCAN flow cytometer (Becton Dickinson, Mountain View, Calif.).
as §3

IB4 lectin [4] = biological target: T1, IB4 lectin; assay: biochemical
PIEC cells = assay: Inhibition of cytotoxicity of NHS and complement on PIEC; assay type: cell-based, pig; settings: peptide 10 mM to 2.5 mM, NHS 1/25
Text: FIG. 4. Inhibition of cytotoxicity due to natural antibody and complement by Gal pep 1 (SEQ ID No. 1). Varying concentrations of Gal pep 1 (∘) or CD48 pep 1 (♦) (shown in mM on horizontal axis) were examined in a cytotoxicity assay using NHS (final dilution of 1/25) and PEEC cells as targets.
as §4
Human cytotoxic antibodies directly damage pig endothelial cells in a pig-to-human xenograft, therefore the ability of Gal pep 1 (SEQ ID No. 1) to inhibit the cytotoxicity of human antibodies on PIEC in vitro was tested; Gal pep 1 inhibited the cytotoxicity of NHS (10 mM to 2.5 mM), whereas CD48 pep 1 (SEQ ID No. 11) had no effect (FIG. 4).

[5] = tested on: MCF-7 (MUC1^+HLA-A*0201^+) cells; assay: CTL assay, HLA-A*0201/K^b spleen CTLs on human breast cancer cells; assay type: ex vivo, mouse; settings: HLA-A2 mice
Experimental: FIG. 14(A) Direct CTL assay using p815 MUC1+ (Tm2) or P815 targets. DBA/2 mice were immunised with MFP, or Gal-KLH. FIG. 14(B) CTL assay using HLA-A*0201/K^b spleen CTLs from mice immunised with either mimic or mutated mimic peptides on ^51Cr MCF-7 (MUC1^+HLA-A*0201^+) cells. ^51CrBT20 (MUC1^+HLA-A*0201^−) or MF272 (MUC1^−IILA-A*0201^+) cells were also used as targets and as well as ^51CrMCF-7 cells incubated with cold K562 cells at a 30:1 hot:cold ratio (K562, a myelogenous leukemia cell line). Vertical axis=% lysis; horizontal axis=E:T ratio.
It was next investigated whether the […] peptide (SEQ ID No. 1) be presented by HLA-A2 could immunise for HLA-H2 presented MUC1 peptides. […] Thus the […] peptide (SEQ ID No. 1) gives highly specific immune responses which appear to be directed to the human MUC1 peptide presented by MUC class I molecules.

[6] = Table 1, anti-Galα(1,3)Gal IgG 87 μg/ml, concentration giving 50% inhibition of binding, read-out: I50 anti-Galα(1,3)Gal IgG
[7] = Table 3, anti-Galα(1,3)Gal antibody (IgG) 87 μgs/ml, read-out: I50 Anti-Galα(1,3)Gal
[8] = varying peptide concentrations (FIG. 6b)

## OCC1OC(OC2C(O)C(O)OC(CO)C2O)C(O)C(O)C1O (centres unmarked) [Galα(1,3)Gal]
[1]
  Inhibition of anti-Galα(1,3)Gal IgG binding to Galα(1,3)Gal-BSA (in words): inhibited
[1]; [6]
  IC50: 30 µM
[1]; [7]
  IC50: 30 µM
IB4 lectin [2]
  Inhibition of IB4 lectin binding to Galα(1,3)Gal-BSA (in words): inhibited
IB4 lectin [2]; Table 1, biotinylated IB4 lectin […], concentration giving 50% inhibition of binding, read-out: I50 IB4
  IC50: < 30 µM
IB4 lectin [2]; read-out: I50 IB4
  IC50: < 30 µM

## OCC1OC(OCC2OC(O)C(O)C(O)C2O)C(O)C(O)C1O (centres unmarked) [Melibiose, Galα(1,6)Glc]
[1]
  Inhibition of anti-Galα(1,3)Gal IgG binding to Galα(1,3)Gal-BSA (in words): inhibited
[1]; [6]
  IC50: 125 to 300 µM
IB4 lectin [2]
  Inhibition of IB4 lectin binding to Galα(1,3)Gal-BSA (in words): inhibited
IB4 lectin [2]; read-out: I50 IB4
  IC50: 300 µM

## CC(C)[C@H](NC(=O)[C@H](CO)NC(=O)[C@H](CO)NC(=O)[C@H](CCCNC(=N)N)NC(=O)[C@H](CCC(N)=O)NC(=O)[C@@H](NC(=O)[C@H](C)NC(=O)[C@H](CO)NC(=O)[C@@H](NC(=O)[C@H](CCC(=O)O)NC(=O)[C@H](CCCCN)NC(=O)[C@H](CCC(=O)O)NC(=O)CNC(=O)CNC(=O)[C@@H]1CCCN1C(=O)[C@@H](NC(=O)[C@H](CO)NC(=O)[C@H](CO)NC(=O)[C@H](C)NC(=O)[C@H](Cc1c[nH]cn1)NC(=O)CNC(=O)[C@H](CO)NC(=O)CNC(=O)[C@@H](N)[C@@H](C)O)[C@@H](C)O)[C@@H](C)O)[C@@H](C)O)C(=O)N1CCC[C@H]1C(=O)O [Muc pep 6]
IB4 lectin [2]
  Inhibition of binding of IB4 to Galα(1,3)Gal-BSA: complete inhibition
IB4 lectin [3]; peptides at 5 mM (FIG. 7)
  Inhibition of IB4 lectin binding to PIEC cells: partial inhibition

## APDTRPAPGSTAPPAH [Muc pep 4]
[1]
  Inhibition of binding of anti-Galα(1,3)Gal IgG to Galα(1,3)Gal-BSA: partial inhibition
[1]; [7]
  IC50: 5000 µM
IB4 lectin [2]
  Inhibition of binding of IB4 to Galα(1,3)Gal-BSA: complete inhibition
IB4 lectin [3]; [8]
  Inhibition of IB4 lectin binding to PIEC cells: partial inhibition

## CHSTPSFTSSITTTETTS [Muc pep 10, human Muc3 VNTR]
IB4 lectin [3]; peptides at 5 mM (FIG. 7)
  Inhibition of IB4 lectin binding to PIEC cells: inhibited

## CPAHGVTSAPDTRPAPGSTAP [Muc pep 1]
[1]
  Inhibition of binding of anti-Galα(1,3)Gal IgG to Galα(1,3)Gal-BSA: inhibited
[1]; [7]
  IC50: 2500 µM
IB4 lectin [2]
  Inhibition of binding of IB4 to Galα(1,3)Gal-BSA: complete inhibition
IB4 lectin [3]; to a peptide concentration of 0.125 mM (FIG. 6a)
  Inhibition of IB4 lectin binding to PIEC cells: almost complete inhibition

## DAHWESWL [Gal pep 1]
IB4 lectin [4]
  IC50: 5000 µM
IB4 lectin [2]
  IC50: 300 µM
PIEC cells
  Inhibition of cytotoxicity of NHS on PIEC: inhibited

## DLHWASWV
[5]
  CTL lysis of human breast cancer cell lines: specifically lyse human breast cancer cell lines

## KYPTTTPISTTTMVTPTPTPTGTQTPTTT [Muc pep 9, human Muc2 VNTR]
IB4 lectin [2]
  Inhibition of binding of IB4 to Galα(1,3)Gal-BSA: no inhibition
IB4 lectin [3]; peptides at 5 mM (FIG. 7)
  Inhibition of IB4 lectin binding to PIEC cells: did not inhibit

## LSGVRFSAARTAHPLPQKH [TNF pep 1, control peptide, MURINE TNFβ]
IB4 lectin [2]
  Inhibition of binding of IB4 to Galα(1,3)Gal-BSA: did not inhibit

## PAPGSTAPPAHGVTSA [Muc pep 5]
IB4 lectin [2]
  Inhibition of binding of IB4 to Galα(1,3)Gal-BSA: complete inhibition
IB4 lectin [3]; [8]
  Inhibition of IB4 lectin binding to PIEC cells: partial inhibition

## RSSVPSSTEKNAVSMTSSVL [Muc pep 7, human Muc1 NH2 to VNTR]
IB4 lectin [2]
  Inhibition of binding of IB4 to Galα(1,3)Gal-BSA: no inhibition
IB4 lectin [3]; peptides at 5 mM (FIG. 7)
  Inhibition of IB4 lectin binding to PIEC cells: did not
